Measurements as given in the kinase profiling compilation of Christmann-Franck et al. (2016).

Assays:
Experiment in all cases: radiometric filter-binding kinase assay, Kinase HotSpot
Settings in all cases: compound 0.5 µM; ATP 10 µM
[1] = target: ERBB2 (human) (UniProt P04626)
[2] = target: CSF1R (human) (UniProt P07333)
[3] = target: SRPK2 (human) (UniProt P78362)
[4] = target: MINK1 (human) (UniProt Q8N4C8)
[5] = target: MAPK9 (human) (UniProt P45984)
[6] = target: ULK2 (human) (UniProt Q8IYT8)
[7] = target: WNK2 (human) (UniProt Q9Y3S1)
[8] = target: TSSK2 (human) (UniProt Q96PF2)
[9] = target: CHEK2 (human) (UniProt O96017)
[10] = target: MAPKAPK5 (human) (UniProt Q8IW41)
[11] = target: BLK (human) (UniProt P51451)
[12] = target: RPS6KA5 KD2 (human) (UniProt O75582)
[13] = target: CSNK1D (human) (UniProt P48730)
[14] = target: MAP2K1 (human) (UniProt Q02750)
[15] = target: TGFBR2 (human) (UniProt P37173)
[16] = target: PIM2 (human) (UniProt Q9P1W9)
[17] = target: IKBKE (human) (UniProt Q14164)
[18] = target: BRSK2 (human) (UniProt Q8IWQ3)
[19] = target: FRK (human) (UniProt P42685)
[20] = target: CSNK2A2 (human) (UniProt P19784)
[21] = target: PASK (human) (UniProt Q96RG2)
[22] = target: PDGFRA (human) (UniProt P16234)
[23] = target: PIM1 (human) (UniProt P11309)
[24] = target: EPHA5 (human) (UniProt P54756)
[25] = target: NEK6 (human) (UniProt Q9HC98)
[26] = target: SRMS (human) (UniProt Q9H3Y6)
[27] = target: DDR2 (human) (UniProt Q16832)
[28] = target: MERTK (human) (UniProt Q12866)
[29] = target: MAP3K14 (human) (UniProt Q99558)
[30] = target: CLK4 (human) (UniProt Q9HAZ1)
[31] = target: MARK2 (human) (UniProt Q7KZI7)
[32] = target: EPHB4 (human) (UniProt P54760)
[33] = target: MAP4K4 (human) (UniProt O95819)
[34] = target: GRK4 (human) (UniProt P32298)
[35] = target: DYRK1A (human) (UniProt Q13627)
[36] = target: CDK4 CCND1 (human) (UniProt P24385+P11802)
[37] = target: PAK1 (human) (UniProt Q13153)
[38] = target: HIPK4 (human) (UniProt Q8NE63)
[39] = target: PRKD1 (human) (UniProt Q15139)
[40] = target: MUSK (human) (UniProt O15146)
[41] = target: NEK9 (human) (UniProt Q8TD19)
[42] = target: DAPK2 (human) (UniProt Q9UIK4)

Chain of PAK1 (human) (Q13153 whole entry, looked up): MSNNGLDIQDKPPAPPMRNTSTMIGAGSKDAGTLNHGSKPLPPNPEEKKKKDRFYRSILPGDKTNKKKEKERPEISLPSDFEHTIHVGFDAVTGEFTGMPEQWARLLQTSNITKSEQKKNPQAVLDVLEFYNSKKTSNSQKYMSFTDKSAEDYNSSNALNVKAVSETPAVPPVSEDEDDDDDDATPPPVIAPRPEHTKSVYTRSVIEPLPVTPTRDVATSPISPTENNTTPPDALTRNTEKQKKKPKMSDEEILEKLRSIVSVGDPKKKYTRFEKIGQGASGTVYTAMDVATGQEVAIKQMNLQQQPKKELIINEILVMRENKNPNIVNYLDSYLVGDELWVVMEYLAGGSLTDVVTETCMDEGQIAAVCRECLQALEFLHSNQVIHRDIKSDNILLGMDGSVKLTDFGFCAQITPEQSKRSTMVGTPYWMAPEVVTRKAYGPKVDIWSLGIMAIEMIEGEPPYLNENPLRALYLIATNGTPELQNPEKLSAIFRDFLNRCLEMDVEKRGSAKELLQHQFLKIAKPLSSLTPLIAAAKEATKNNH
Chain of IKBKE (human) (Q14164 whole entry, looked up): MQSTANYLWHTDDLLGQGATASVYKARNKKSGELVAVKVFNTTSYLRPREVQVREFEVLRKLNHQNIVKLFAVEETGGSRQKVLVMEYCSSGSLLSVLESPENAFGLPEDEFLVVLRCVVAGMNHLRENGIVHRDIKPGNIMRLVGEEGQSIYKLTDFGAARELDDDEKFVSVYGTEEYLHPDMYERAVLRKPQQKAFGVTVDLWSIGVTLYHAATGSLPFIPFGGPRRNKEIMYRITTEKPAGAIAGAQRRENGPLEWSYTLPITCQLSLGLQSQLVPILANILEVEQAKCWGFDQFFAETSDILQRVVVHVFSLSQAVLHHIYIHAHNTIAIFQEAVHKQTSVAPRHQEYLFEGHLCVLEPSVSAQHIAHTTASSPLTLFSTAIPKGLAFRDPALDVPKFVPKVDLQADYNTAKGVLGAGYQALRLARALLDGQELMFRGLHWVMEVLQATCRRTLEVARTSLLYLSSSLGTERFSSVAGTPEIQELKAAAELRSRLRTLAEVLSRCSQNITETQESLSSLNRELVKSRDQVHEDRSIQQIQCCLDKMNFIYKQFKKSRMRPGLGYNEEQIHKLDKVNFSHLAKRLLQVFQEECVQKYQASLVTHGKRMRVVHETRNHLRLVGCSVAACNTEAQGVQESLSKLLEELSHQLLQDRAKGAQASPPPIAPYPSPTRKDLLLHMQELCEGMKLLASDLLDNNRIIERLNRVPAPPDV
Chain of CSF1R (human) (P07333 whole entry, looked up): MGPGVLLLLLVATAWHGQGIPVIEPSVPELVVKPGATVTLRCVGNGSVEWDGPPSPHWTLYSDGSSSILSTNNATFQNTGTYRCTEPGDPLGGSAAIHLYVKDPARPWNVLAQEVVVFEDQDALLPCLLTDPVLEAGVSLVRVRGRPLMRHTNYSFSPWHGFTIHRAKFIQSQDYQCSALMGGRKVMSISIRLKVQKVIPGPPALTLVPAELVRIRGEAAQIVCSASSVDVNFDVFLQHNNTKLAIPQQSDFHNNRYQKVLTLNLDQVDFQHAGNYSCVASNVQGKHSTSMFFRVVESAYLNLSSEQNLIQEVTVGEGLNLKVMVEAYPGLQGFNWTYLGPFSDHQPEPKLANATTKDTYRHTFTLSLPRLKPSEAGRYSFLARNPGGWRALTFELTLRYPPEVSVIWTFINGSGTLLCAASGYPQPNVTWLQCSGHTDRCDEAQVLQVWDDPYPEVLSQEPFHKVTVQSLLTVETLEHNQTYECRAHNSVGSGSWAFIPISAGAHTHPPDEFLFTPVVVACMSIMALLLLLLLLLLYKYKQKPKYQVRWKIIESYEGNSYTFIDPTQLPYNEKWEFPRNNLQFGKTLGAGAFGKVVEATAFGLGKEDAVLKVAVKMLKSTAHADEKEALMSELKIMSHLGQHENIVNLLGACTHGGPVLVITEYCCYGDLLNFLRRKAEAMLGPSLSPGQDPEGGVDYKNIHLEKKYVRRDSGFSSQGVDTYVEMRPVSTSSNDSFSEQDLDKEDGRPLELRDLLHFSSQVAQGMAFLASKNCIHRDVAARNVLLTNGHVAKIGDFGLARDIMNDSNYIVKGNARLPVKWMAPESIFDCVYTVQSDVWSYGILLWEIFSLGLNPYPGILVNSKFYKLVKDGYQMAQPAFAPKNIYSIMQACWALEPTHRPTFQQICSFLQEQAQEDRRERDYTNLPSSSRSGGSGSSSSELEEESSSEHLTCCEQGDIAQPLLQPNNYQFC
Chain of PDGFRA (human) (P16234 whole entry, looked up): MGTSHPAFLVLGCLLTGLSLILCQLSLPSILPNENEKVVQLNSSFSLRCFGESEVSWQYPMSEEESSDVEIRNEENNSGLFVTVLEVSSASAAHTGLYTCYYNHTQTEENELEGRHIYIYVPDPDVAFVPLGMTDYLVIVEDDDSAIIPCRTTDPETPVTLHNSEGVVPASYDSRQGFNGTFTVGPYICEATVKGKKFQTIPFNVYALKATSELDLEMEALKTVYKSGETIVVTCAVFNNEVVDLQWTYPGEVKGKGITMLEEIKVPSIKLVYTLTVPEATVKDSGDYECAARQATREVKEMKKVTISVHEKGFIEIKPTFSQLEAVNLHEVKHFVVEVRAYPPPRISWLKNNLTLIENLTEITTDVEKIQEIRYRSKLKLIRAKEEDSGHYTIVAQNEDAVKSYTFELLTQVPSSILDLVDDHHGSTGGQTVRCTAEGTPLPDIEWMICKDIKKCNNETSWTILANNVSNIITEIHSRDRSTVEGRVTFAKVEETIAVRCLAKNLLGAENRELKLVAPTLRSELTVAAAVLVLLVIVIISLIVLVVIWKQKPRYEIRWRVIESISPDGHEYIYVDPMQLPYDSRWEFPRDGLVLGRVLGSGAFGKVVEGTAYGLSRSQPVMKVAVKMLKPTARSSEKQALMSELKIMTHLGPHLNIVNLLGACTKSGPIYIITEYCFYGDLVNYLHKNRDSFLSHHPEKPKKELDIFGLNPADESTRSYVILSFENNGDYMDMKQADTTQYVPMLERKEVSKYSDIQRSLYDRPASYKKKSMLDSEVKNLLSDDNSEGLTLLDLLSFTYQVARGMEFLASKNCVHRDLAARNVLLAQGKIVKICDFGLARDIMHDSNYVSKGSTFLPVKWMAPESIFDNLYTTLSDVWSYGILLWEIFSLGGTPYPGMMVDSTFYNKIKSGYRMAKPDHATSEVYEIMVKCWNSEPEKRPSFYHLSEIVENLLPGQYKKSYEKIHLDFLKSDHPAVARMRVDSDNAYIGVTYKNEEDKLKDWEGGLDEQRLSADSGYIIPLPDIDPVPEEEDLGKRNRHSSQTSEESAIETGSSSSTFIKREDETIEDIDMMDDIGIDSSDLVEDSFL
Chain of ERBB2 (human) (P04626 whole entry, looked up): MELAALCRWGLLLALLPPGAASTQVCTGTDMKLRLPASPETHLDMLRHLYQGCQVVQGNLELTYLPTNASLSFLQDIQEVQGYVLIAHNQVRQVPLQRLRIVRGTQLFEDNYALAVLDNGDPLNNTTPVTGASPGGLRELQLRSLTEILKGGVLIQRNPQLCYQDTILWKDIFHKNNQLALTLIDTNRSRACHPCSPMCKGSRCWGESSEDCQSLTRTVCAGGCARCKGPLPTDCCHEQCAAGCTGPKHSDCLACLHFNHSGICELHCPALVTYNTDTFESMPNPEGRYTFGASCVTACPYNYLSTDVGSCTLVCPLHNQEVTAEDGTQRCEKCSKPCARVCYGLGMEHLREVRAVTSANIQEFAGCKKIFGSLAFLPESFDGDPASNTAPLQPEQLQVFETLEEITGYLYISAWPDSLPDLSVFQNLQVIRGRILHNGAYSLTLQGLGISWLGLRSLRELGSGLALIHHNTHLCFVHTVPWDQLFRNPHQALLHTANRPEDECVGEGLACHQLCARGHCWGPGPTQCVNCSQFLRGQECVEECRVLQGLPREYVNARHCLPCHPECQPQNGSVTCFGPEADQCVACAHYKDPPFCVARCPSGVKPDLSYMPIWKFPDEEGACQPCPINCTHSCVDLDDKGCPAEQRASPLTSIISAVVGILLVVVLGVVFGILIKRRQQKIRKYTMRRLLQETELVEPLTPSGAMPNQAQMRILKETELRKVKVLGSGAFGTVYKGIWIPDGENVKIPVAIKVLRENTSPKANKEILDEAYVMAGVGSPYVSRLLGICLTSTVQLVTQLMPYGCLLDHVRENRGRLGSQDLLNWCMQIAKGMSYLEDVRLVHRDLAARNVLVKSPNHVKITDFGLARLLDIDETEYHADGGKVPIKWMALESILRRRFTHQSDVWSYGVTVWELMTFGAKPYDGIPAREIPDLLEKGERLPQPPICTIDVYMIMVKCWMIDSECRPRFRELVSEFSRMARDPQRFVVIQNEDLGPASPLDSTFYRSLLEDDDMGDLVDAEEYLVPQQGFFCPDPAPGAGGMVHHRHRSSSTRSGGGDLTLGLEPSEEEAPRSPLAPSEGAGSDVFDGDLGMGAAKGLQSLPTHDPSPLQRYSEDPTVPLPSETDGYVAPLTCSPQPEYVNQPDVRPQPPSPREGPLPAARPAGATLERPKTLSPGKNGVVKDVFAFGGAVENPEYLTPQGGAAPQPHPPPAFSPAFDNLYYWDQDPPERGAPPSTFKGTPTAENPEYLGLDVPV
Chain of MAPKAPK5 (human) (Q8IW41 whole entry, looked up): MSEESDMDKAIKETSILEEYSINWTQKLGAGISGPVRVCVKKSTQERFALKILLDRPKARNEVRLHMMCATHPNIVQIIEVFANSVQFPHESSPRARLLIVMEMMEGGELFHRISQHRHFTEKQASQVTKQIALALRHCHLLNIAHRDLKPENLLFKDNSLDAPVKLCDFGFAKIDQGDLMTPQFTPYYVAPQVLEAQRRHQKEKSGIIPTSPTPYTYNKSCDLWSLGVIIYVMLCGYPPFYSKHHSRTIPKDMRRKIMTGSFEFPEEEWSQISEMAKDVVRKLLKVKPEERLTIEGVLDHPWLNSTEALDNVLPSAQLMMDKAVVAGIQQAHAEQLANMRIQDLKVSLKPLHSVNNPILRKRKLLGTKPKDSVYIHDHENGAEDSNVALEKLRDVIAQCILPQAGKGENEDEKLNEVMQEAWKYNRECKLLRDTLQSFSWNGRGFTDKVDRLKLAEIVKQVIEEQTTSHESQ

N#Cc1c[nH]c2c[nH]/c(=N\Cc3cccnc3)cc2/c1=N\c1ccc(F)c(Cl)c1
residual activity [1]: 91.7%
residual activity [2]: 96.3%
residual activity [3]: 101%
residual activity [4]: 77.5%
residual activity [5]: 100%
residual activity [6]: 102%
residual activity [7]: 91.1%
residual activity [8]: 100%
residual activity [9]: 90.5%
residual activity [10]: 99.6%
residual activity [11]: 99.9%
residual activity [12]: 102%
residual activity [13]: 88.4%
residual activity [14]: 86.2%
residual activity [15]: 118%
residual activity [16]: 101%
residual activity [17]: 90.6%
residual activity [18]: 100%
residual activity [19]: 101%
residual activity [20]: 75.2%
residual activity [21]: 124%
residual activity [22]: 94.3%
residual activity [23]: 92.7%
residual activity [24]: 90.6%
residual activity [25]: 104%
residual activity [26]: 104%
residual activity [27]: 91.9%
residual activity [28]: 67.2%
residual activity [29]: 118%
residual activity [30]: 63.3%
residual activity [31]: 93.2%
residual activity [32]: 85.2%
residual activity [33]: 44.4%
residual activity [34]: 98.8%
residual activity [35]: 52.7%
residual activity [36]: 97.6%
residual activity [37]: 95.7%
residual activity [38]: 93.1%
residual activity [39]: 94.5%
residual activity [40]: 55.6%
residual activity [41]: 96.3%
residual activity [42]: 108%

COc1ccc2c(c1)/C(=C/c1cnc[nH]1)C(O)=N2
residual activity [1]: 101%
residual activity [2]: 88.7%
residual activity [3]: 101%
residual activity [4]: 57.9%
residual activity [5]: 101%
residual activity [6]: 97.7%
residual activity [7]: 102%
residual activity [8]: 97.3%
residual activity [9]: 77.9%
residual activity [10]: 95.2%
residual activity [11]: 90.3%
residual activity [12]: 89.2%
residual activity [13]: 93.6%
residual activity [14]: 94.8%
residual activity [15]: 107%
residual activity [16]: 97.2%
residual activity [17]: 92.5%
residual activity [18]: 61.7%
residual activity [19]: 96.4%
residual activity [20]: 77.5%
residual activity [21]: 93.4%
residual activity [22]: 94.9%
residual activity [23]: 90.8%
residual activity [24]: 86.2%
residual activity [25]: 98.2%
residual activity [26]: 103%
residual activity [27]: 95.5%
residual activity [28]: 84.7%
residual activity [29]: 96.9%
residual activity [30]: 72.6%
residual activity [31]: 50%
residual activity [32]: 91.1%
residual activity [33]: 19.4%
residual activity [34]: 93.6%
residual activity [35]: 70.4%
residual activity [36]: 33.7%
residual activity [37]: 97.8%
residual activity [38]: 90.8%
residual activity [39]: 47.9%
residual activity [40]: 78.3%
residual activity [41]: 83.2%
residual activity [42]: 97.3%

c1ccc2c(-c3ccncc3)c[nH]c2c1
residual activity [1]: 95.6%
residual activity [2]: 101%
residual activity [3]: 103%
residual activity [4]: 84.6%
residual activity [5]: 103%
residual activity [6]: 106%
residual activity [7]: 96.9%
residual activity [8]: 96.9%
residual activity [9]: 99.3%
residual activity [10]: 96.1%
residual activity [11]: 99.6%
residual activity [12]: 96.7%
residual activity [13]: 105%
residual activity [14]: 96.5%
residual activity [15]: 119%
residual activity [16]: 105%
residual activity [17]: 96.4%
residual activity [18]: 98.6%
residual activity [19]: 106%
residual activity [20]: 94.9%
residual activity [21]: 101%
residual activity [22]: 95%
residual activity [23]: 93.5%
residual activity [24]: 99.4%
residual activity [25]: 93.4%
residual activity [26]: 107%
residual activity [27]: 92.6%
residual activity [28]: 93%
residual activity [29]: 112%
residual activity [30]: 101%
residual activity [31]: 102%
residual activity [32]: 89.7%
residual activity [33]: 54.4%
residual activity [34]: 94.9%
residual activity [35]: 77.6%
residual activity [36]: 112%
residual activity [37]: 99.1%
residual activity [38]: 93.8%
residual activity [39]: 95.5%
residual activity [40]: 78.9%
residual activity [41]: 101%
residual activity [42]: 108%

O=C(c1cc2cc(O)ccc2[nH]1)c1cc2cc(O)ccc2[nH]1
residual activity [1]: 113%
residual activity [2]: 97.7%
residual activity [3]: 97.1%
residual activity [4]: 9.87%
residual activity [5]: 116%
residual activity [6]: 94.5%
residual activity [7]: 96.6%
residual activity [8]: 93.6%
residual activity [9]: 80.1%
residual activity [10]: 89.6%
residual activity [11]: 49.7%
residual activity [12]: 96.1%
residual activity [13]: 92.5%
residual activity [14]: 103%
residual activity [15]: 123%
residual activity [16]: 108%
residual activity [17]: 81.6%
residual activity [18]: 44.3%
residual activity [19]: 86.1%
residual activity [20]: 78.8%
residual activity [21]: 78.7%
residual activity [22]: 65.3%
residual activity [23]: 76.1%
residual activity [24]: 100%
residual activity [25]: 99.6%
residual activity [26]: 93.7%
residual activity [27]: 95.7%
residual activity [28]: 81.8%
residual activity [29]: 77.1%
residual activity [30]: 79.1%
residual activity [31]: 59.9%
residual activity [32]: 89.3%
residual activity [33]: 6.63%
residual activity [34]: 103%
residual activity [35]: 103%
residual activity [36]: 91.5%
residual activity [37]: 94.6%
residual activity [38]: 99.8%
residual activity [39]: 58.5%
residual activity [40]: 55.1%
residual activity [41]: 93.6%
residual activity [42]: 101%
